Experimental data reported in patent US20260317333A1, “Heteroaryl Compounds as Ligand Directed Degraders of IRAK4” (Celgene Corporation, priority 2023, published 2026).
Where a name gives a salt, the structure may show the parent alone.

Columns and labels:
IRAK4 [1] = molecular target: T1, IRAK4 (Homo sapiens, UniProt Q9NWZ3); test: ALE THP1 HTRF (IRAK4 degradation in THP1 cells, HTRF with anti-IRAK4 antibodies); format: cell-based; design: THP1 Homogeneous Time Resolved Fluorescence (ALE THP1 HTRF) Procedure; endogenous in cells; host or cells: THP1; conditions: THP1 cell lysate; for DC50: read-out: ALE THP1 HTRF EC50
T1 sequence (Q9NWZ3 1-460): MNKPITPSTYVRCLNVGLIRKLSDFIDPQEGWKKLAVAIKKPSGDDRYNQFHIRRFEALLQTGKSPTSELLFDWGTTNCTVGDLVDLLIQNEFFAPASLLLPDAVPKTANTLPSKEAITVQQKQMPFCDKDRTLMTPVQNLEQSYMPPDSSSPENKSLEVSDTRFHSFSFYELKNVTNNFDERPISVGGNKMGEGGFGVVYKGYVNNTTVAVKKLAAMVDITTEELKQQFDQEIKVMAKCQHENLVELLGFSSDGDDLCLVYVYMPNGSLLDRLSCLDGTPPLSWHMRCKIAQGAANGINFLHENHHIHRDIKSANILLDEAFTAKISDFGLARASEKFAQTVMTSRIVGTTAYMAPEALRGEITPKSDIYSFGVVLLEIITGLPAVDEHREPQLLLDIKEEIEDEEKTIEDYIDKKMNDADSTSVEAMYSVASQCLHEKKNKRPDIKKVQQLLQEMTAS
Method: Cell culture media was prepared in a tissue culture hood in a sterile environment by adding 10% FBS and 1% Penicillin Streptomycin to 500 mL no phenol red RPMI 1640 media. The media was filtered through a Nalgene Bottle Top Filter and stored at 4° C.
For Homogenous Time Resolved Fluorescence (HTRF) assays, a Cisbio HTRF kit was used, which included: Lysis Buffer #1 4×, Blocking Reagent #3 100×, 20× Antibody 1 (Anti-IRAK4 d2), 20× Antibody 2 (Anti-IRAK4 k), and Detection Buffer.
4× Lysis Buffer was stored at 4° C. For use as 1× Lysis buffer, the 4× solution was diluted with de-ionized water (distilled water, Gibco Cat. #15230279) and 100× Blocking Reagent in a 1:3:0.04 volume ratio.
20× Antibody Solution aliquots were stored at −80° C. and the Detection Buffer was stored at 4° C. For use as a 1× Antibody Solution, the 20× Antibody Solution aliquot was diluted with Detection Buffer in a 1:19 volume ratio.
Cells were lysed at room temperature for 45 min with shaking. A BCA protein assay was performed and normalization was conducted to the desired total protein concentration with 1× lysis buffer. Next, 1× Antibody Solutions were prepared by adding 380 μL Detection Buffer to 20 μL 20× Antibody Solution aliquots and mixing well. 1× Antibody Solutions were combined 1:1 and briefly vortexed. For control wells, 20 μL 1× anti IRAK4-k Antibody Solution was saved. The 384-well plate (ProxiPlate-384 Plus, Perkin Elmer Cat. #6008289) was loaded by adding 4 μL of the mixed Antibody Solution to empty wells using a single channel repeater. Using a multi-channel repeater, 16 μL lysate was added per well, and any bubbles that were formed were popped with 20 μL pipette tips and Kimwipe edges. In column 10, triplicates of each control were prepared. In wells A10, B10, and C10, buffer control was prepared by adding 16 μL Lysis Buffer and 4 μL Detection Buffer. In wells D10, E10, and F10, cryptate control was prepared by adding 16 μL Lysis Buffer, 2 μL Detection Buffer, and 2 μL 1× anti-IRAK4-k Antibody Solution. In wells G10, H10, and I10, a negative control was prepared by adding 16 μL Lysis Buffer and 4 μL mixed Antibody Solution. The plate was sealed with a clear seal and covered with an aluminum lid. The plate was spun down at 800 g for 5 min and incubated in the dark at room temperature overnight. The next day, the plate was spun down at 800 g for 5 min. The samples were analyzed by a plate reader (Envision, PerkinElmer) using the Desnor 384 HTRF program.

IRAK4 [2] = molecular target: T1, IRAK4; test: IRAK4 PhosphoSens Biochemical Assay (BIOCHEM); conditions: 200 μM ATP; 10 μM peptide substrate AQT0326; 1 nM IRAK4; room temperature; 240 minutes
Method: The PhosphoSens® biochemical assay was performed as described by the vendor (AssayQuant Technologies Inc. Marlborough, MA). A 1.25× stock solution of IRAK4 (PV4002, ThermoFisher Scientific, Waltham, MA) and a 5× stock solution of ATP and Sox conjugated peptide substrate, AQT0326 (CSKS-AQT0326B, AssayQuant Technologies), were prepared in 1× kinase reaction buffer consisting of 50 mM HEPES, pH 7.5, 0.01% Brij-35, 0.5 mM EGTA, 20 mM MgCl2 and 1 mM DTT. 10 μL of the ATP and substrate solution mix, for a final concentration of 200 μM ATP and 10 μM peptide substrate, was added to a Corning 3574 384-well, white, non-binding surface microtiter plate containing 0.5 μL of serially diluted test compounds prepared in DMSO. The reactions were started with the addition of 40 μL of the enzyme solution, for a final IRAK4 concentration of 1 nM, and monitored every 71 seconds for 240 minutes at λEX 360/λEM 485 in a BioTek Synergy H4 plate reader (Agilent Technologies, Santa Clara, CA) at room temperature. The initial linear portions of the progress curves were fit according to a linear equation to yield the slopes and converted to % inhibition based on a value of 100% activity for the no inhibitor treated control. IC50 values of each compound were obtained by fitting the % inhibition-compound concentration curves using Dotmatics software (Dotmatics, Bishops Stortford, Hertfordshire, England).

Row | ALE THP1 HTRF YMIN (IRAK4 [1]) [%] | DC50 (IRAK4 [1]) [nM] | IC50 (IRAK4 [2]) [nM] | SMILES
1 | 10 | 7 | 0.4 | N[C@@H]1C[C@@H](F)CN(c2ccn3ncc(C(=O)Nc4cn([C@H]5CC[C@H](C(=O)N6CCC(CNc7cccc(C8CCC(=O)NC8=O)c7)CC6)CC5)nc4C(F)(F)F)c3n2)C1 (stereo partly drawn) [Compound P-1, N-[1-[4-[4-[[3-(2,6-dioxo-3-piperidyl)anilino]methyl]piperidine-1-carbonyl]cyclohexyl]-3-(trifluoromethyl)pyrazol-4-yl]-5-[(3R,5R)-3-amino-5-fluoro-1-piperidyl]pyrazolo[1,5-a]pyrimidine-3-carboxamide hydrochloride salt]
2 | 68 | 96 | 0.3 | N[C@@H]1C[C@@H](F)CN(c2ccn3ncc(C(=O)Nc4cn([C@H]5CC[C@H](C(=O)N6CCC(CNc7ccc(C8CCC(=O)NC8=O)cc7)CC6)CC5)nc4C(F)(F)F)c3n2)C1 (stereo partly drawn) [Compound P-2, N-[1-[4-[4-[[4-(2,6-Dioxo-3-piperidyl)anilino]methyl]piperidine-1-carbonyl]cyclohexyl]-3-(trifluoromethyl)pyrazol-4-yl]-5-[(3R,5R)-3-amino-5-fluoro-1-piperidyl]pyrazolo[1,5-a]pyrimidine-3-carboxamide hydrochloride]
3 | 81 | 177 | 0.3 | N[C@@H]1C[C@@H](F)CN(c2ccn3ncc(C(=O)Nc4cn([C@H]5CC[C@H](CN6CCC(CNc7ccc(C8CCC(=O)NC8=O)cc7)CC6)CC5)nc4C(F)(F)F)c3n2)C1 (stereo partly drawn) [Compound P-3]
4 | 52 | > 10000 | 0.3 | N[C@@H]1C[C@@H](F)CN(c2ccn3ncc(C(=O)Nc4cn([C@H]5CC[C@H](C(=O)N6CCC(Nc7ccc(C8CCC(=O)NC8=O)cc7)CC6)CC5)nc4C(F)(F)F)c3n2)C1 (stereo partly drawn) [Compound P-7]
5 | 86 | > 10000 | 0.3 | N[C@@H]1C[C@@H](F)CN(c2ccn3ncc(C(=O)Nc4cn([C@H]5CC[C@H](C(=O)N6CCC(Nc7cccc(C8CCC(=O)NC8=O)c7)CC6)CC5)nc4C(F)(F)F)c3n2)C1 (stereo partly drawn) [Compound P-9]
6 | 20 | 964 | 0.6 | N[C@@H]1C[C@@H](F)CN(c2ccn3ncc(C(=O)Nc4cn([C@H]5CC[C@H](CN6CCN(c7ccc(C8CCC(=O)NC8=O)cc7)CC6)CC5)nc4C(F)(F)F)c3n2)C1 (stereo partly drawn) [Compound P-10]
7 | 19 | 15 | 0.4 | N[C@@H]1C[C@@H](F)CN(c2ccn3ncc(C(=O)Nc4cn([C@H]5CC[C@H](CCN6CCN(c7ccc(C8CCC(=O)NC8=O)cc7)CC6)CC5)nc4C(F)(F)F)c3n2)C1 (stereo partly drawn) [Compound P-11, 5-((3R,5R)-3-Amino-5-fluoropiperidin-1-yl)-N-(1-((1r,4r)-4-(2-(4-(4-(2,6-dioxopiperidin-3-yl)phenyl)piperazin-1-yl)ethyl)cyclohexyl)-3-(trifluoromethyl)-1H-pyrazol-4-yl) pyrazolo[1,5-a]pyrimidine-3-carboxamide hydrochloride]
